The record followed here is patent publication US9290764B2, “RNAi for the control of insects and arachnids” (Devgen NV, priority 2005, dated 2016).

The test system of the series is German cockroach, Blattella germanica. Description: Cockroach laboratory trial of Bg001 dsRNA and Bg001 concatemer 2 (mortality and moulting to adult). The format is in vivo. Conditions: for number of cockroaches successfully moulting to the adult stage, as a percentage of live insects (means±standard errors, n=4): pellets 1% w/w. On the procedure: Table 3: Effect of dsRNA treatments on the number of cockroaches successfully moulting to the adult stage, as a percentage of live insects (means±standard errors, n=4)
FIG. 2: Mortality of B. germanica on artificial pellet diet. The concentration of dsRNA (Bg001, having the sequence as represented as SEQ ID NO 9, and Bg001 concatemer 2, having the sequence as represented as SEQ ID NO 68) in the pellets was 1% w/w. In this experiment, hexaflumuron (1% w/w) was tested as a positive control and solvent as a negative control.
Stock solutions of 1-10 μg/μl dsRNA in distilled water were prepared. Each dsRNA solution was diluted to the appropriate concentration and mixed with finely ground laboratory diet (Rat and mouse standard diet, B&K Universal Ltd, Hull, UK), which was previously heat treated in order to inactivate any enzymes. The mixture or formulation was formed into small pellets of equal weight (0.3 g) to achieve an end concentration of 0.1% to 2% w/w dsRNA and dried overnight at room temperature.
Newly hatched nymphs from the German cockroach, B. germanica were housed per 10 in plastic lidded containers (29±2° C., minimum 40% relative humidity, with a 12:12 light:dark photoperiod). Animals were starved 24 hours prior to exposure to the pellets. The cockroaches were assessed as live, moribund or dead twice a week until adulthood. The pellet was replaced with freshly prepared pellet once a week. dsRNA containing pellets, formulations, were compared with a negative control (solvent) and a positive control (1 or 2% imidacloprid, commonly used in commercially available cockroach baits).
Concatemers were designed for each target gene. Concatemers are synthetic tandem repeats of 50 to 100 bp dsfragments. In the present example, concatemers were designed by selecting the best possible fragments in regions with homology in protein family as well as at nucleotide level, in regions containing the best predicted siRNAs and in regions with between 40 and 60% GC content, preferably about 50% GC content, if possible.
For Bg001 two concatemers were designed consisting of a five times repeat of a 50 bp fragment, ie represented by SEQ ID NO 65 and 66, resulting in Bg001 concatemer 1 and Bg001 concatemer 2, herein represented respectively as SEQ ID NO 67 and SEQ ID NO 68, and one concatemer was designed consisting of a three times repeat of a 100 bp repeat, ie represented by SEQ ID NO 69, resulting in Bg001 concatemer 3, herein represented as SEQ ID NO 70. XbaI and SmaI flanking sites were added for cloning in a vector to produce dsRNA. These dsRNA constructs comprising the concatemers were tested in the cockroach laboratory trials.
For example at day 48, from the surviving cockroaches treated with Bg001 only 33.3 moulted to the adult stage whereas none of the cockroaches treated with Bg001 concatemer 2 did within this time as shown in Table 3.

For the molecule `O=C(NC(=O)c1c(F)cccc1F)Nc1cc(Cl)c(OC(F)(F)C(F)F)c(Cl)c1` [Positive control, hexaflumuron], the “number of cockroaches successfully moulting to the adult stage, as a percentage of live insects (means±standard errors, n=4)” value is, setting by setting: (Day 38) 0.0 (±0.0) %; (Day 41) 0.0 (±0.0) %; (Day 45) 0.0 (±0.0) %; (Day 48) 0.0 (±0.0) %; (Day 52) 0.0 (±0.0) %.

B1: Bg001 concatemer 2: dsRNA concatemer, five times repeat of a 50 bp Bg001 fragment (SEQ ID NO 66) (nucleic acid)
DNA: CTTGGGTCGTGTTGGAACTGTAGTTAATCGAGAACGTCATCCTGGTTCCTCTTGGGTCGTGTTGGAACTGTAGTTAATCGAGAACGTCATCCTGGTTCCTCTTGGGTCGTGTTGGAACTGTAGTTAATCGAGAACGTCATCCTGGTTCCTCTTGGGTCGTGTTGGAACTGTAGTTAATCGAGAACGTCATCCTGGTTCCTCTTGGGTCGTGTTGGAACTGTAGTTAATCGAGAACGTCATCCTGGTTCCT
modifications: Concatemer
Take B1: the “number of cockroaches successfully moulting to the adult stage, as a percentage of live insects (means±standard errors, n=4)” value reads like this: (Day 38) 0.0 (±0.0) %; (Day 41) 0.0 (±0.0) %; (Day 45) 0.0 (±0.0) %; (Day 52) 0.0 (±0.0) %. For the same molecule, the “mortality compared to the negative control (solvent)” value (artificial pellet diet, dsRNA 1% w/w (FIG. 2)) was “significant higher”.
